Drawing on patent US8586608B2, “Quinazoline derivatives and pharmaceutical compositions containing them” (Boehringer Ingelheim Pharma GmbH & Co. KG, priority 2000, dated 2013), this text covers IC50 and melting point for 15 compounds.

For data set [1], the target named is T1, human EGF-receptor kinase (Homo sapiens, UniProt P00533).
T1 construct: GST; made in house; host or cells: Sf9 insect cells (baculovirus)
As to the kind of experiment: Inhibition of human EGF-receptor kinase (ELISA, bio-pEY substrate). The class given is biochemical. As to conditions: cytoplasmic tyrosine kinase domain (Met664-Ala1186) as GST fusion protein; substrate pEY (4:1)/bio-pEY; 30 minutes at ambient temperature. A general note: In an ELISA, binding on a coated surface is turned into a signal by an enzyme label.
Description: To do this, the protein was expressed in Sf9 insect cells as a GST fusion protein using the Baculovirus expression system.
The enzyme activity was measured in the presence or absence of the test compounds in serial dilutions. The polymer pEY (4:1) produced by SIGMA was used as the substrate. Biotinylated pEY (bio-pEY) was added as the tracer substrate. Every 100 μl of reaction solution contained 10 μl of the inhibitor in 50% DMSO, 20 μl of the substrate solution (200 mM HEPES pH 7.4, 50 mM magnesium acetate, 2.5 mg/ml poly(EY), 5 μg/ml bio-pEY) and 20 μl of enzyme preparation. The enzyme reaction was started by the addition of 50 μl of a 100 μM ATP solution in 10 mM magnesium chloride. The dilution of the enzyme preparation was adjusted so that the incorporation of phosphate into the bio-pEY was linear in terms of time and quantity of enzyme. The enzyme preparation was diluted in 20 mM HEPES pH 7.4, 1 mM EDTA, 130 mM common salt, 0.05% Triton X-100, 1 mM DTT and 10% glycerol.
The enzyme assays were carried out at ambient temperature over a period of 30 minutes and were ended by the addition of 50 μl of a stopping solution (250 mM EDTA in 20 mM HEPES pH 7.4). 100 μl were placed on a streptavidin-coated microtiter plate and incubated for 60 minutes at ambient temperature. Then the plate was washed with 200 μl of a washing solution (50 mM Tris, 0.05% Tween 20). After the addition of 100 μl of a HRPO-labelled anti-PY antibody (PY20H Anti-PTyr:HRP produced by Transduction Laboratories, 250 ng/ml), it was incubated for 60 minutes. Then the microtiter plate was washed three times with 200 μl of washing solution. The samples were then combined with 100 μl of a TMB-peroxidase solution (A:B=1:1, Kirkegaard Perry Laboratories). After 10 minutes, the reaction was stopped. The extinction was measured at OD450nm with an ELISA reader. All data points were measured three times.
The data were matched by means of an iterative calculation using an analytical program for sigmoidal curves (Graph Pad Prism Version 3.0) with variable Hill pitch.

What is called IC50 is the midpoint of a concentration-inhibition curve. The low end stands for greater potency, the high end for weaker potency. Broadly, the melting point is the temperature, or range, at which the solid turns liquid.

T1 sequence (P00533 688-1210): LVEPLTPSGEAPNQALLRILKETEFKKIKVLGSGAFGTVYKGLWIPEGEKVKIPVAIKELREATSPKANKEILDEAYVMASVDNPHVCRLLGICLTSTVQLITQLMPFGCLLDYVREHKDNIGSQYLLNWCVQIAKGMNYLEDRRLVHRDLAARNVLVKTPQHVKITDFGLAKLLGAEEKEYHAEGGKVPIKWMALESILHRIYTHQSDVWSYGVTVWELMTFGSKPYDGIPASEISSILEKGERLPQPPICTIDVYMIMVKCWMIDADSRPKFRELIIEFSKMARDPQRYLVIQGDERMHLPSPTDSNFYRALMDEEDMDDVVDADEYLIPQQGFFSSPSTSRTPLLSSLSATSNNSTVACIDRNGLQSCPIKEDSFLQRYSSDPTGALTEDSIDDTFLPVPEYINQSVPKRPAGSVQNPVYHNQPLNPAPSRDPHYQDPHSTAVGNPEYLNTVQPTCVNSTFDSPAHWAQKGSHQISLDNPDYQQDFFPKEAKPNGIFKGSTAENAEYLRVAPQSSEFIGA

Regarding `CN(C)CC=CC(=O)Nc1cc2c(Nc3ccc(F)c(Cl)c3)ncnc2cc1OC1CCCC1` [1 (2), 4-[(3-chloro-4-fluorophenyl)amino]-6-{[4-(N,N-dimethylamino)-1-oxo-2-buten-1-yl]amino}-7-cyclopentyloxyquinazoline], the IC50 in data set [1] stood at 0.6 nM.
Consider `COCCN(CC=CC(=O)Nc1cc2c(N[C@H](C)c3ccccc3)ncnc2cc1OCC1CC1)CCOC` [1 (3), 4-[(R)-(1-phenylethyl)amino]-6-{[4-(N,N-bis(2-methoxyethyl)amino)-1-oxo-2-buten-1-yl]amino}-7-cyclopropylmethoxyquinazoline], for which the IC50 in data set [1] worked out at 4 nM.
On the same count and under the same terms, the value for `COCCN(C)CC=CC(=O)Nc1cc2c(N[C@H](C)c3ccccc3)ncnc2cc1OCC1CC1` [1 (5), 4-[(R)-(1-phenylethyl)amino]-6-({4-[N-(2-methoxyethyl)-N-methylamino]-1-oxo-2-buten-1-yl}amino)-7-cyclopropylmethoxyquinazoline] was 3 nM.
Take `CN(CC=CC(=O)Nc1cc2c(Nc3ccc(F)c(Cl)c3)ncnc2cc1OC1CCCC1)C1CC1` [1 (22), 4-[(3-chloro-4-fluorophenyl)amino]-6-{[4-(N-cyclopropyl-N-methylamino)-1-oxo-2-buten-1-yl]amino}-7-cyclopentyloxyquinazoline]: the melting point amounted to 140 °C. The compound also had an IC50 in data set [1] of 1 nM.
In the case of `CN(C)CC=CC(=O)Nc1cc2c(Nc3ccc(F)c(Cl)c3)ncnc2cc1OC[C@@H]1CCCO1` [1 (32), 4-[(3-chloro-4-fluorophenyl)amino]-6-{[4-(N,N-dimethylamino)-1-oxo-2-buten-1-yl]amino}-7-[(s)-(tetrahydrofuran-2-yl)methoxy]quinazoline], the midpoint of inhibition in data set [1], the IC50, lay at 0.3 nM.
As for `CCN(C)CC=CC(=O)Nc1cc2c(Nc3ccc(F)c(Cl)c3)ncnc2cc1O[C@H]1CCOC1` [1 (33), 4-[(3-chloro-4-fluorophenyl)amino]-6-{[4-(N-ethyl-N-methylamino)-1-oxo-2-buten-1-yl]amino}-7-[(s)-(tetrahydrofuran-3-yl)oxy]quinazoline], the melting point lay in the range of 154 to 157 °C. In data set [1], this compound had an IC50 of 0.5 nM.
With `CC(C)N(C)CC=CC(=O)Nc1cc2c(Nc3ccc(F)c(Cl)c3)ncnc2cc1O[C@H]1CCOC1` [1 (34), 4-[(3-chloro-4-fluorophenyl)amino]-6-{[4-(N-isopropyl-N-methylamino)-1-oxo-2-buten-1-yl]amino}-7-[(s)-(tetrahydrofuran-3-yl)oxy]quinazoline], half-maximal inhibition in data set [1] (IC50) was put at 0.4 nM.
`CN(CC=CC(=O)Nc1cc2c(Nc3ccc(F)c(Cl)c3)ncnc2cc1OCC1CC1)C[C@H]1CCCO1` [Example 1 (19), 4-[(3-chloro-4-fluorophenyl)amino]-6-[(4-{(R)—N-[(tetrahydrofuran-2-yl)methyl]-N-methylamino}-1-oxo-2-buten-1-yl)amino]-7-cyclopropylmethoxyquinazoline] yielded a melting point of 149 to 153 °C.
Same read-out and setting: the value for `CN(CC=CC(=O)Nc1cc2c(Nc3ccc(F)c(Cl)c3)ncnc2cc1OCC1CC1)CC1CCOCC1` [Example 1 (24), 4-[(3-chloro-4-fluorophenyl)amino]-6-[(4-{N-[(tetrahydropyran-4-yl)methyl]-N-methylamino}-1-oxo-2-buten-1-yl)amino]-7-cyclopropylmethoxyquinazoline] was 141 °C.
The same measure, in the same setting: the value for `CN(CC=CC(=O)Nc1cc2c(Nc3ccc(F)c(Cl)c3)ncnc2cc1OC1CCCC1)C[C@H]1CCCO1` [Example 1 (26), 4-[(3-chloro-4-fluorophenyl)amino]-6-[(4-{(R)—N-[(tetrahydrofuran-2-yl)methyl]-N-methylamino}-1-oxo-2-buten-1-yl)amino]-7-cyclopentyloxyquinazoline] was 117 to 121 °C; that for `O=C(C=CCN1CCOCC1)Nc1cc2c(Nc3ccc(F)c(Cl)c3)ncnc2cc1OCC1CCOCC1` [Example 1 (29), 4-[(3-chloro-4-fluorophenyl)amino]-6-{[4-(morpholin-4-yl)-1-oxo-2-buten-1-yl]amino}-7-[(tetrahydropyran-4-yl)methoxy]quinazoline] was 174 °C.
The same measure, in the same setting: the value for `COCCN(CC=CC(=O)Nc1cc2c(Nc3ccc(F)c(Cl)c3)ncnc2cc1OCC1CCOCC1)CCOC` [Example 1 (30), 4-[(3-chloro-4-fluorophenyl)amino]-6-({4-[N,N-bis(2-methoxyethyl)amino]-1-oxo-2-buten-1-yl}amino)-7-[(tetrahydropyran-4-yl)methoxy]quinazoline] was 100 to 102 °C; that for `CN(C)CC=CC(=O)Nc1cc2c(Nc3ccc(F)c(Cl)c3)ncnc2cc1OC[C@H]1CCCO1` [Example 1 (31), 4-[(3-chloro-4-fluorophenyl)amino]-6-{[4-(N,N-dimethylamino)-1-oxo-2-buten-1-yl]amino}-7-[(R)-(tetrahydrofuran-2-yl)methoxy]quinazoline] was 110 to 112 °C; that for `O=C(C=CCN1CCOCC1)Nc1cc2c(Nc3ccc(F)c(Cl)c3)ncnc2cc1O[C@H]1CCOC1` [Example 1 (35), 4-[(3-chloro-4-fluorophenyl)amino]-6-{[4-(morpholin-4-yl)-1-oxo-2-buten-1-yl]amino}-7-[(s)-(tetrahydrofuran-3-yl)oxy]quinazoline] was 184 to 185 °C.
On to `COCCN(C)CC=CC(=O)Nc1cc2c(Nc3ccc(F)c(Cl)c3)ncnc2cc1OCC1CC1` [Example 1, [(3-chloro-4-fluorophenyl)amino]-6-({4-[N-(2-methoxyethyl)-N-methylamino]-1-oxo-2-buten-1-yl}amino)-7-cyclopropylmethoxyquinazoline], for which the IC50 in data set [1] is 0.7 nM.
